The test system of data set [1] is Escherichia coli. The data set is described as follows: Antimicrobial activity against Escherichia coli JW55031 TolC mutant assessed as reduction in microbial growth incubated for 18 to 20 hrs by broth microdilution method.
Data set [2] concerns Escherichia coli. The data set is described as follows: Antibacterial activity against Escherichia coli ATCC 25922 incubated for 18 to 20 hrs by broth microdilution method. In kind it is functional. The note with it: time 18-20 hrs.
The subject of data set [3] is Escherichia coli. Nature of the data set: Synergistic antibacterial activity against Escherichia coli ATCC 25922 in presence of 0.25 times MIC of colistin incubated for 18 to 20 hrs by broth microdilution method. It is filed as functional. Particulars: time 18-20 hrs.
In data set [4] the test system is Klebsiella pneumoniae. The data set is described as follows: Antibacterial activity against Klebsiella pneumoniae ATCC 1706 incubated for 18 to 20 hrs by broth microdilution method. It is filed as functional. The note with it: time 18-20 hrs.
Data set [5] has as its system Escherichia coli. The data set is described as follows: Antibacterial activity against wild type Escherichia coli BW25113 incubated for 18 to 20 hrs by broth microdilution method. It is filed as functional. The note with it: time 18-20 hrs.
The subject of data set [6] is Escherichia coli. The data set is described as follows: Synergistic antibacterial activity against wild type Escherichia coli BW25113 in presence of 0.25 times MIC of colistin incubated for 18 to 20 hrs by broth microdilution method. In kind it is functional. Particulars: time 18-20 hrs.
For data set [7], the system named is Klebsiella pneumoniae. Nature of the data set: Synergistic antibacterial activity against Klebsiella pneumoniae ATCC 1706 in presence of 0.25 times MIC of colistin incubated for 18 to 20 hrs by broth microdilution method. It is filed as functional. The note with it: time 18-20 hrs.
Data set [8] deals with Acinetobacter baumannii. Nature of the data set: Antibacterial activity against Acinetobacter baumannii ATCC 19606 incubated for 18 to 20 hrs by broth microdilution method. It is filed as functional. The note with it: time 18-20 hrs.
The subject of data set [9] is Acinetobacter baumannii. The data set is described as follows: Synergistic antibacterial activity against Acinetobacter baumannii ATCC 19606 in presence of 0.25 times MIC of colistin incubated for 18 to 20 hrs by broth microdilution method. In kind it is functional. The note with it: time 18-20 hrs.
In data set [10] the test system is Pseudomonas aeruginosa. Nature of the data set: Antibacterial activity against Pseudomonas aeruginosa ATCC 15442 incubated for 18 to 20 hrs by broth microdilution method. It is filed as functional. The note with it: time 18-20 hrs.
Data set [11] deals with Pseudomonas aeruginosa. Nature of the data set: Synergistic antibacterial activity against Pseudomonas aeruginosa ATCC 15442 in presence of 0.25 times MIC of colistin incubated for 18 to 20 hrs by broth microdilution method. The note with it: time 18-20 hrs. It is filed as functional.
The test system of data set [12] is Caco-2. The data set is described as follows: Cytotoxicity against human Caco-2 cells assessed as reduction in cell viability incubated for 2 hrs by MTS assay. The note with it: caco-2, 2 h. In kind it is cell-based.
In data set [13] the test system is Vero. Nature of the data set: Cytotoxicity against African green monkey Vero cells assessed as reduction in cell viability incubated for 2 hrs by MTS assay. In kind it is cell-based. Particulars: chlorocebus sabaeus.

This note sets out measurements from ChEMBL document CHEMBL4680116, “Development of benzimidazole-based derivatives as antimicrobial agents and their synergistic effect with colistin against gram-negative bacteria” (Eur J Med Chem, 2020).

Values after ≈ are worked out from the molar mass of the structure shown.

For `CS(=O)(=O)Nc1cccc(-c2nc3ccccc3n2Cc2cccc3ccccc23)c1`, the MIC in data set [1] was more than 128 µg/mL.

Consider `CS(=O)(=O)Nc1cccc(-c2nc3ccccc3n2Cc2ccc(Cl)cc2Cl)c1`, for which the minimal inhibitory concentration (MIC) in data set [1] was 8 µg/mL.

`CS(=O)(=O)Nc1cccc(-c2nc3ccccc3n2Cc2ccc(F)cc2)c1`: the minimal inhibitory concentration (MIC) in data set [1] came out at 32 µg/mL.

For `CS(=O)(=O)Nc1cccc(-c2nc3ccccc3n2CC2CCCCC2)c1`, the MIC in data set [1] turned out to be 16 µg/mL.

In the case of `CS(=O)(=O)Nc1cccc(-c2nc3ccccc3n2Cc2ccc(C#N)cc2)c1`, the MIC in [1] came to 64 µg/mL.

As for `CS(=O)(=O)Nc1cccc(-c2nc3ccccc3n2Cc2ccc(OC(F)(F)F)cc2)c1`, the MIC in [1] is more than 128 µg/mL.

Turning to `Cc1ccc(Cn2c(-c3ccccc3)nc3ccccc32)cc1`, the minimal inhibitory concentration (MIC) in [1] worked out at 8 µg/mL.

Regarding `Cc1ccc(Cn2c(-c3ccc(NS(C)(=O)=O)cc3)nc3ccccc32)cc1`, the MIC in data set [1] is more than 128 µg/mL.

Take `CS(=O)(=O)Nc1cccc(-c2nc3ccccc3n2Cc2ccccc2)c1`: the minimum inhibitory concentration (MIC) in data set [1] is 16 µg/mL.

For `CS(=O)(=O)Nc1cccc(-c2nc3ccccc3n2Cc2cccc(C#N)c2)c1`, in [1], the MIC was more than 128 µg/mL.

With `CS(=O)(=O)Nc1cccc(-c2nc3ccccc3n2Cc2ccc(Br)cc2)c1`, the MIC in data set [1] is 4 µg/mL.

As to `Cc1ccc(Cn2c(-c3cccc(NS(C)(=O)=O)c3)nc3ccccc32)cc1`, the MIC in data set [1] is 2 µg/mL; in data set [2], more than 128 µg/mL; in data set [3], 16 µg/mL; in [4], more than 128 µg/mL; in [5], more than 128 µg/mL; in data set [6], 16 µg/mL. Besides, the minimal inhibitory concentration (MIC) in [7] is 8 µg/mL; in data set [8], more than 128 µg/mL; in data set [9] it was 8 µg/mL; in data set [10], more than 128 µg/mL; in data set [11], 16 µg/mL. Also, the Activity entry in data set [12] and in data set [13] was “Non-Toxic” throughout.

Take `CC(=O)Nc1cccc(-c2nc3ccccc3n2Cc2ccc(C)cc2)c1`: in [1], the minimal inhibitory concentration (MIC) is more than 128 µg/mL.

Take `Cc1ccc(Cn2c(-c3cccc(N)c3)nc3ccccc32)cc1`: the MIC in [1] stood at 4 µg/mL.

Turning to `CS(=O)(=O)Nc1cccc(-c2nc3ccccc3n2Cc2cccc(F)c2)c1`, in data set [1], the minimal inhibitory concentration (MIC) was found to be 64 µg/mL.

On to `Cc1ccc(Cn2c(-c3ccc(C(F)(F)F)cc3)nc3ccccc32)cc1`, for which the minimum inhibitory concentration (MIC) in data set [1] was 128 µg/mL.

As to `CS(=O)(=O)Nc1cccc(-c2nc3ccccc3n2Cc2ccc(Cl)c(Cl)c2)c1`, in data set [1], the MIC was determined as 8 µg/mL.

In the case of `Cc1ccc(Cn2c(-c3ccc(Cl)cc3)nc3ccccc32)cc1`, in data set [1], the MIC is more than 128 µg/mL.

With `CCCCCCCCCC(=O)N[C@@H](Cc1c[nH]c2ccccc12)C(=O)N[C@H](CC(N)=O)C(=O)N[C@@H](CC(=O)O)C(=O)N[C@@H]1C(=O)NCC(=O)N[C@@H](CCCN)C(=O)N[C@@H](CC(=O)O)C(=O)N[C@H](C)C(=O)N[C@@H](CC(=O)O)C(=O)NCC(=O)N[C@H](CO)C(=O)N[C@@H]([C@H](C)CC(=O)O)C(=O)N[C@@H](CC(=O)c2ccccc2N)C(=O)O[C@@H]1C`, the minimal inhibitory concentration (MIC) in data set [2], in data set [3], in data set [4], in data set [5], in data set [6] and in data set [7] was more than 128 µg/mL throughout. The minimal inhibitory concentration (MIC) in data set [8], in data set [9], in [10] and in data set [11] was more than 128 µg/mL in each case.

For the molecule `CC[C@H]1OC(=O)[C@H](C)[C@@H](O[C@H]2C[C@@](C)(OC)[C@@H](O)[C@H](C)O2)[C@H](C)[C@@H](O[C@@H]2O[C@H](C)C[C@H](N(C)C)[C@H]2O)[C@](C)(O)C[C@@H](C)C(=O)[C@H](C)[C@@H](O)[C@]1(C)O` [ERYTHROMYCIN], the MIC in data set [2] amounted to 16 µg/mL (≈ 21.8 µM); in [3], 1 µg/mL; in data set [4], 64 µg/mL (≈ 87.2 µM); in [5], 16 µg/mL (≈ 21.8 µM); in data set [6] it was 1 µg/mL; in [7], 2 µg/mL. Moreover, the MIC in data set [8] stood at 16 µg/mL (≈ 21.8 µM); in data set [9], 0.5 µg/mL; in [10], 64 µg/mL (≈ 87.2 µM); in [11] it was 2 µg/mL.

On to `CS(=O)(=O)Nc1cccc(-c2nc3ccccc3n2Cc2ccc(C(F)(F)F)cc2)c1`, for which the MIC in data set [1] turned out to be 16 µg/mL.

For `Cc1cccc(Cn2c(-c3cccc(NS(C)(=O)=O)c3)nc3ccccc32)c1`, in data set [1], the MIC was determined as 16 µg/mL.

As to `COc1ccc(-c2nc3ccccc3n2Cc2ccc(C)cc2)cc1`, the MIC in data set [1] is more than 128 µg/mL.

Regarding `Cc1ccc(Cn2c(-c3ccc(OC(F)(F)F)cc3)nc3ccccc32)cc1`, the MIC in data set [1] is more than 128 µg/mL.

On to `CS(=O)(=O)Nc1cccc(-c2nc3ccccc3n2Cc2cccc(Cl)c2)c1`, for which, in [1], the minimum inhibitory concentration (MIC) worked out at 16 µg/mL.

Take `Cc1ccc(Cn2c(-c3cccc([N+](=O)[O-])c3)nc3ccccc32)cc1`: the MIC in [1] was more than 128 µg/mL.

For the molecule `Nc1cccc(-c2nc3ccccc3n2Cc2ccc(Cl)c(Cl)c2)c1`, the minimum inhibitory concentration (MIC) in data set [1] is 4 µg/mL.

In the case of `FC(F)(F)c1ccc(Cn2c(-c3ccccc3)nc3ccccc32)cc1`, the MIC in [1] was 8 µg/mL.

As to `c1ccc(Cn2c(-c3ccccc3)nc3ccccc32)cc1`, in data set [1], the MIC is 16 µg/mL.

`Nc1cccc(-c2nc3ccccc3n2Cc2ccc(C(F)(F)F)cc2)c1`: the MIC in data set [1] is 8 µg/mL.

With `Cc1ccc(Cn2c(-c3ccc(C#N)cc3)nc3ccccc32)cc1`, the MIC in data set [1] was more than 128 µg/mL.

Consider `Cc1ccc(Cn2c(-c3cccc(C(F)(F)F)c3)nc3ccccc32)cc1`, for which the MIC in data set [1] was more than 128 µg/mL.

Turning to `CC(=O)NC[C@H]1CN(c2ccc(N3CCOCC3)c(F)c2)C(=O)O1` [LINEZOLID], the MIC in data set [1] is 8 µg/mL; in [2] it was 128 µg/mL (≈ 379 µM); in data set [3] it was 128 µg/mL; in [4], more than 128 µg/mL; in [5], 128 µg/mL (≈ 379 µM); in data set [6] it was 128 µg/mL. In addition, the MIC in data set [7], in data set [8], in [9], in data set [10] and in [11] was more than 128 µg/mL in each case.

For `CC(=O)Nc1cccc(-c2nc3ccccc3n2Cc2ccc(Cl)cc2)c1`, the minimum inhibitory concentration (MIC) in [1] was more than 128 µg/mL.

For `Cc1ccc(Cn2c(-c3cccc(C#N)c3)nc3ccccc32)cc1`, in data set [1], the MIC turned out to be 16 µg/mL.

As to `CS(=O)(=O)Nc1cccc(-c2nc3ccccc3n2Cc2ccc(Cl)cc2)c1`, the minimal inhibitory concentration (MIC) in data set [1] amounted to 8 µg/mL.
